“Also recorded” adds a separate entry of the source. Marks after values point to notes of the source that are not given here.
Key:
[1] = Body composition, modified 4-component model (DXA + BIS), and body mass; format: in vivo, human; conditions: for FM (kg) Week 4 / FM (kg) Week 8: 4-component fat mass; for FFM (kg) Week 4 / FFM (kg) Week 8: 4-component fat-free mass; for BF % ES (d) / BM ES (d) / FFM ES (d) / FM ES (d): Cohen's d baseline vs week 8; for BM (kg) Week 4 / BM (kg) Week 8: body mass; for BF % Δ (%) / BM Δ (%) / FFM Δ (%) / FM Δ (%): change baseline to week 8 relative to baseline; for BM (kg) Δ / FFM (kg) Δ / FM (kg) Δ: week 8 minus baseline; for BF % Δ: week 8 minus baseline (absolute BF %)
Text: At baseline and after 4 and 8 weeks of the intervention, participants completed two testing sessions: (1) a morning assessment conducted after an overnight fast for assessment of body composition, metabolism, vascular measures and subjective factors: and (2) an afternoon assessment of muscular performance, conducted in the non-fasted state. For morning assessments, participants reported to the laboratory after abstention from eating, drinking, exercising and utilizing caffeine or nicotine for ≥8 hours. Participants were interviewed to confirm adherence to these pre-assessment restrictions. The actual abstention from exercise was ≥14 hours due to the scheduling of exercise sessions. Participants reported to the laboratory wearing athletic clothing, and all metal and accessories were removed from the body prior to testing. Each participant voided her bladder and provided a urine sample. Urine samples were assessed for urine specific gravity (USG) using a digital refractometer (PA201X-093. Misco, Solon, Ohio. USA). Additionally, a standard urinary HCG test was performed to confirm that each participant was not pregnant. Finally, urinary samples were frozen at −80° C. for assessment of urinary HMB content after study unblinding. After voiding, each participant's body mass (BM) and height were determined via digital scale with stadiometer (Seca 769, Hamburg, Germany). Blood draws were performed at Texas Tech University Student Health Services after an overnight fast, and participants completed at-home saliva collections for assessment of the cortisol awakening response (CAR).
Body composition was assessed using a modified 4-component (4C) model (20, 21) produced from dual-energy x-ray absorptiometry (DXA) and bioimpedance spectroscopy (BIS) data. DXA scans were performed on a Lunar Prodigy scanner (General Electric, Boston, Mass., USA) with enCORE software (v. 16.2). The scanner was calibrated using a quality control block each morning prior to use, and positioning of participants was conducted according to manufacturer recommendations. Each participant was able to fit within the scanning dimensions. DXA bone mineral content (BMC) was divided by 0.9582 to yield an estimate of bone mineral (Mo) (22). Additionally, body volume (BV) was estimated from DXA lean soft tissue (LST), fat mass (FM) and BMC using the equation developed by Wilson et al. for General Electric DXA scanners (20):
BIS was utilized to obtain total body water (TBW) estimates. BIS utilizes Cole modeling (23) and mixture theories (24) to predict body fluids rather than regression equations used by other impedance methods (e.g. bioelectrical impedance analysis (25)). The BIS device used in the present study (SFB7, ImpediMed. Carlsbad, Calif., USA) employs 256 measurement frequencies ranging from 4 to 1,000 kHz. Each participant remained supine for ≥5 minutes immediately prior to assessment using the manufacturer-recommended hand-to-foot electrode arrangement. Duplicate assessments were performed, with the values averaged for analysis. Assessments were reviewed for quality assurance through visual inspection of Cole plots.
The 4C equation of Wang et al. was utilized for estimation of whole-body FM (26):
FFM was calculated as BM−FM, and BF % was calculated as (FM/BM)×100.

[2] = Muscle thickness of elbow flexors and knee extensors via ultrasonography; format: in vivo, human; conditions: for MTEF ES (d) / MTKE ES (d): Cohen's d baseline vs week 8; for MTEF Δ (%) / MTKE Δ (%): change baseline to week 8 relative to baseline; for MTEF (cm) Week 8: muscle thickness elbow flexors; for MTEF (cm) Week 8 / MTKE (cm) Week 8: mean ± SE; for MTKE (cm) Week 8: muscle thickness knee extensors; for MTEF (cm) Δ / MTKE (cm) Δ: week 8 minus baseline
Protocol: In addition to whole-body composition estimates, muscle thickness of the elbow flexors (MTEF) and knee extensors (MTKE) was evaluated via ultrasonography (Logiq e, General Electric. Boston, Mass. USA) at baseline and study completion. […] These distances were measured while the participant was standing, and measurement distances at baseline were recorded and used at the final assessment. All assessments took place on the right side of the body. In the supine position, the participant's arm was abducted to ˜80° with the arm supported for elbow flexor measurements. For knee extensor measurements, a foam pad was placed beneath the knee to allow an ˜10° bend at the knee joint. For all assessments, transmission gel was generously applied to the marked measurement location, and minimal pressure was applied by the transducer in order to avoid tissue compression. Three single transverse images were taken at each location, with values averaged for analysis. The gain and depth of the transducer were kept consistent for all measurements at a given site. Ultrasound images were blinded for analysis and analyzed by a single blinded researcher using ImageJ (v. 1.52a; National Institutes of Health, USA). The reliability of the researcher analyzing ultrasound images was determined through blinded analysis of 28 randomly selected ultrasound images on two occasions. This exercise produced minimum differences (MD) of 0.07 cm for MTEF and 0.14 cm for MTKE.

[3] = ITT analysis, week 4, mean ± SE
[4] = ITT analysis, week 8, mean ± SE

Structure (SMILES): CC(C)(O)CC(=O)O [TRFHMB, β-hydroxy-β-methylbutyrate]
- Absolute effect size for BF % loss, TRFHMB relative to HMB only ([1]; 4 weeks): 2 fold
- BF % Week 4 ([1]; ITT analysis, 4-component body fat percentage, week 4, mean ± SE): 27.1 ± 1.7%
- BF % Week 8 ([1]; ITT analysis, 4-component body fat percentage, week 8, mean ± SE): 27.3 ± 1.6%
- FM (kg) Week 4 [1, 3]: 17.5 ± 1.5 kg
- FM (kg) Week 8 [1, 4]: 17.5 ± 1.5 kg
- FFM (kg) Week 4 [1, 3]: 46.5 ± 1.4 kg
- FFM (kg) Week 8 [1, 4]: 46.2 ± 1.3 kg
- BF % ES (d) ([1]; ITT analysis): −0.25
- BM ES (d) ([1]; ITT analysis): 0.08
- FFM ES (d) ([1]; ITT analysis): 0.26
- FM ES (d) ([1]; ITT analysis): −0.13
- BM (kg) Week 4 [1, 3]: 63.9 ± 2.2 kg
- BM (kg) Week 8 [1, 4]: 63.8 ± 2.1 kg
- BF % Δ (%) ([1]; ITT analysis): −5%
- BM Δ (%) ([1]; ITT analysis): 1%
- FFM Δ (%) ([1]; ITT analysis): 3%
- FM Δ (%) ([1]; ITT analysis): −4%
- BM (kg) Δ ([1]; ITT analysis): 0.6 kg
- FFM (kg) Δ ([1]; ITT analysis): 1.2 kg
- FM (kg) Δ ([1]; ITT analysis): -0.7 kg
- BF % Δ ([1]; ITT analysis): −1.4%
- Fat mass change versus baseline (in words) ([1]; PP analysis): significant reductions; also recorded: lower at W8 than baseline
- BF % Week 8 ([1]; PP analysis, 4-component body fat percentage, week 8, mean ± SE): 26.8 ± 2.6^b %
- FM (kg) Week 4 ([1]; PP analysis, week 4, mean ± SE): 17.5 ± 2.5 kg
- FM (kg) Week 8 ([1]; PP analysis, week 8, mean ± SE): 17.3 ± 2.3^b kg
- FFM (kg) Week 4 ([1]; PP analysis, week 4, mean ± SE): 46.8 ± 1.8 kg
- FFM (kg) Week 8 ([1]; PP analysis, week 8, mean ± SE): 46.4 ± 1.6 kg
- BF % ES (d) ([1]; PP analysis): −0.34
- BM ES (d) ([1]; PP analysis): 0.00
- FFM ES (d) ([1]; PP analysis): 0.32
- FM ES (d) ([1]; PP analysis): −0.23
- BM (kg) Week 4 ([1]; PP analysis, week 4 of TRF + 3 g/d HMB + RT, mean ± SE): 64.2 ± 3.1 kg
- BM (kg) Week 8 ([1]; PP analysis, week 8, mean ± SE): 63.7 ± 3.0 kg
- BF % Δ (%) ([1]; PP analysis): −8%
- BM Δ (%) ([1]; PP analysis): 0%
- FFM Δ (%) ([1]; PP analysis): 3%
- FM Δ (%) ([1]; PP analysis): −7%
- Reduction in BF % at W8 (significance) ([1]; PP analysis, week 8): statistically significant
- BM (kg) Δ ([1]; PP analysis): 0.0 kg
- FFM (kg) Δ ([1]; PP analysis): 1.4 kg
- FM (kg) Δ ([1]; PP analysis): -1.4 kg
- BF % Δ ([1]; PP analysis): −2.3%
- BF % 4-week effect size (d) ([1]; PP, TRF + 3 g/d Calcium-HMB + RT, n=7): −0.31
- BF % 4-week Δ-change ([1]; PP, TRF + 3 g/d Calcium-HMB + RT, n=7, baseline 29.1±2.5, p<0.05): −2.1%
- MTEF ES (d) ([2]; ITT analysis): 0.68
- MTKE ES (d) ([2]; ITT analysis): 0.33
- MTEF Δ (%) ([2]; ITT analysis): 8%
- MTKE Δ (%) ([2]; ITT analysis): 5%
- MTEF (cm) Week 8 ([2]; ITT analysis): 2.96 ± 0.09 cm
- MTKE (cm) Week 8 ([2]; ITT analysis): 4.33 ± 0.16 cm
- MTEF (cm) Δ ([2]; ITT analysis): 0.22 cm
- MTKE (cm) Δ ([2]; ITT analysis): 0.19 cm
- MTEF ES (d) ([2]; PP analysis): 0.86
- MTKE ES (d) ([2]; PP analysis): 0.31
- MTEF Δ (%) ([2]; PP analysis): 9%
- MTKE Δ (%) ([2]; PP analysis): 4%
- MTEF (cm) Week 8 ([2]; PP analysis): 2.97 ± 0.10 cm
- MTKE (cm) Week 8 ([2]; PP analysis): 4.44 ± 0.20 cm
- MTEF (cm) Δ ([2]; PP analysis): 0.24 cm
- MTKE (cm) Δ ([2]; PP analysis): 0.17 cm

Source: patent publication US20190209501A1, “COMPOSITIONS AND METHODS OF USE OF BETA-HYDROXY-BETA-METHYLBUTYRATE (HMB) […] IN[…]” (Texas Tech University Office of Research Commercialization, priority 2018, published 2019)
